In test [1] the test system is HeLa. Description: Antiproliferative activity against human HeLa cells assessed as inhibition of cell growth by MTT assay relative to control. In kind it is functional.
For test [2], the species on record is Bos taurus. Description: Inhibition of bovine kidney TNAP relative to control. On the set-up: concentration or dose not given beside the values. The note with it: concentration not given here.
Test [3] is filed under the species Bos taurus. Description: Inhibition of calf intestinal alkaline phosphatase relative to control. The arrangement: concentration or dose not given beside the values. Particulars: concentration not given here.
A short description of test [4]: Inhibition of calf intestinal alkaline phosphatase. The arrangement: species or system Bos taurus.
A short description of test [5]: Inhibition of bovine kidney TNAP. The arrangement: species or system Bos taurus.

pIC50: −log10 of the molar value.

Turning to `CCOC(=O)c1s/c(=N\C(=O)c2cc(OC)c(OC)c(OC)c2)oc1C`, the “growth inhibition (GI)” value in test [1] came out at 58.07%. Besides, the inhibition in test [2] was determined as 47.1%; in test [3] it was 36.5%.

For the compound `CCOC(=O)c1s/c(=N\C(=O)CCCc2ccccc2)oc1C`, the values for the pIC50 in test [4] and in test [5] were 6.17 and 5.62, respectively. In addition, the “growth inhibition (GI)” value in test [1] is given as 3.96%.

Take `CCOC(=O)c1s/c(=N\C(=O)c2ccc(Cl)cc2)oc1C`: the values for the inhibition in test [2] and in test [3] were 48.3% and 27.9%, respectively.

`CCOC(=O)c1s/c(=N\C(=O)c2ccccc2Cl)oc1C` gave a pIC50 in test [5] of 4.52. Besides, in test [1], the “growth inhibition (GI)” value was found to be 51.53%. This compound yielded an inhibition in test [3] of 45.3%.

With `CCOC(=O)c1s/c(=N\C(=O)c2ccc([N+](=O)[O-])cc2)oc1C`, the negative-log IC50 (pIC50) in test [5] was 6.43. In addition, in test [1], the “growth inhibition (GI)” value was 21.53%. The compound also showed an inhibition in test [3] of 40.4%.

In turn, `c1ccc([C@H]2CN3CCSC3=N2)cc1` [LEVAMISOLE] showed a negative-log IC50 (pIC50) in test [5] of 4.72.

For `CCOC(=O)c1s/c(=N\C(=O)c2cccc(C)c2)oc1C`, the “growth inhibition (GI)” value in test [1] was determined as 33.07%. The figures for the inhibition in test [2] and in test [3] were 30.9% and 28.9%, respectively.

For `N[C@@H](Cc1ccccc1)C(=O)O` [PHENYLALANINE], in test [4], the pIC50 is 4.10.

As for `CCOC(=O)c1s/c(=N\C(=O)c2ccco2)oc1C`, the “growth inhibition (GI)” value in test [1] is 42.11%. Besides, the inhibition is 45.7% in test [2] and 33.1% in test [3].

With `CCOC(=O)c1s/c(=N\C(=O)c2ccccc2C)oc1C`, the “growth inhibition (GI)” value in test [1] is 9.8%. For the same compound, the inhibition came to 28.8% in test [2] and 19.5% in test [3].

As for `CCOC(=O)c1s/c(=N\C(=O)c2ccccc2[N+](=O)[O-])oc1C`, the “growth inhibition (GI)” value in test [1] is 2.42%. Also, the inhibition in test [2] came out at 44.5%; in test [3], 35.4%.

Take `CCOC(=O)c1s/c(=N\C(=O)Cc2ccccc2)oc1C`: the “growth inhibition (GI)” value in test [1] worked out at 4.15%. Besides, the inhibition in test [2] was 41.4%; in test [3] it was 25.3%.

As to `CCOC(=O)c1s/c(=N\C(=O)c2ccccc2)oc1C`, the “growth inhibition (GI)” value in test [1] is 69.03%. The inhibition is 39.1% in test [2] and 30.4% in test [3].

With `CCOC(=O)c1s/c(=N\C(=O)c2cccc(Br)c2)oc1C`, the pIC50 was 5.94 in test [4] and 5.19 in test [5]. Moreover, the “growth inhibition (GI)” value in test [1] worked out at 4.61%.

`CCOC(=O)c1s/c(=N\C(=O)c2cccc(Cl)c2)oc1C` showed a pIC50 in test [4] of 5.54. The “growth inhibition (GI)” value in test [1] is reported as 8.07%. This compound also gave an inhibition in test [2] of 45.3%.

The values are drawn from ChEMBL document CHEMBL4622867, “An efficient synthetic approach toward a sporadic heterocyclic scaffold: 1,3-Oxathiol-2-ylidenes; alkaline phosphatase inhibition and molecular docking studies” (Bioorg Med Chem Lett, 2020).
